# Measurements: PubChem BioAssay AID179 (DTP/NCI, 2004)
# Activity calls are given as the source filed them.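 Rule for the calls: active = compounds giving half or more protection of infected cells from virus-caused growth loss, again on retest; inactive = the rest.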
# Tested on: CEM cells HIV-1 protection, formazan growth assay
# Test: NCI AIDS Antiviral Assay
# Settings: for IC50: measured here: growth of uninfected CEM cells
# How it was run: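 Protection of CEM cells against HIV-1 was scored from cell growth (soluble formazan) across five concentrations, with parallel uninfected cells. Lack of protection may reflect toxicity.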
Compound,EC50 [µM],IC50 [µM],outcome
CC(C)=CCC[C@@H](C)C1[C@@H](OC2OC(CO)C(O)C(O)C2O)CC2(C)[C@@H]3CC(=O)C4C(C)(C)[C@@H](OC5OC(CO)C(O)C(O)C5O)CC[C@@]45C[C@@]35CC[C@]12C (stereo partly specified),> 33.1,31.6,–
CCOC(=O)N1N=C(/C(C)=N/OC)C(C)S1=O (stereo unspecified),> 200,148,–
O=C1C(N=Nc2ccccc2)Sc2nc3ccccc3n21 (stereo unspecified),> 200,85.1,–
O=S(=O)(O)c1cc2onnc2c2ccccc12,> 1000,525,–
CN(C)Cc1cc(CN(C)C)c(O)c(CN(C)C)c1,> 200,> 200,–
O=C1c2ccccc2C(=O)C2C1C1C(=O)c3ccccc3C(=O)C21 (stereo unspecified),–,–,inactive
Cc1cc2c(=O)[nH]nc(N)c2c(N)n1,> 200,> 200,–
CCOC(=O)NC(NCC(O)c1ccccc1)(C(F)(F)F)C(F)(F)F (stereo unspecified),> 200,174,–
CC1CCSC(N(C(=O)N(C)c2ccccc2)c2ccccc2)=N1 (stereo unspecified),> 741,724,–
N#C/C(=C/c1ccc([N+](=O)[O-])o1)c1ccccc1,> 1050,61.7,–
COc1ccccc1Nc1nc(N)nc(N)c1N=O,> 200,> 200,–
O=C(O)C1CCC(c2ccc(F)cc2)=N1 (stereo unspecified),> 200,> 200,–
CC(C)(C)N=C(N)NC#N,> 200,> 200,–
COc1ccc2nc3c([N+](=O)[O-])ccc4c3c(c2c1)N=CN4CCN(C)C,> 100,1.02,–
C/C(N)=C\c1nc(=O)ccs1,> 178,129,–
CC1(C)OC2OC(C3COS(=O)O3)C(Cl)C2O1 (stereo unspecified),> 871,490,–
CCC(C)C(=O)c1c(O)c(CC2OC2(C)C)c(O)c2c(C(O)CC)cc(=O)oc12 (stereo unspecified),> 200,5.62,–

Compound,EC50 [µM],IC50 [µM],outcome
Cc1nn(C)c2c1C(=O)N(C)CC(=O)N2C,> 200,> 200,–
CC1(C)CC[C@H](C2=CC(=O)c3c(O)ccc(O)c3C2=O)O1,> 91.2,0.0955,–
C=C1c2[nH]c3ccccc3c2CC(C(=O)O)N1C(O)c1ccc(S(=O)(=O)O)cc1 (stereo unspecified),–,–,inactive
COC(=O)c1ccc(C(=O)NC(Cc2ccc(Oc3cc(CC(NC(=O)c4ccccc4C(=O)OC)C(=O)OC)ccc3OC)cc2)C(=O)OC)cc1 (stereo unspecified),> 200,16.2,–
O=C(O)/C=C\C(=O)Nc1ccccc1O,> 200,> 200,–
[Cu+2].[Cu+2].[Cu+2].[Cu+2].[O-]CCN(CC[OH2+])CC[OH2+].[O-]CCN(CC[OH2+])CC[OH2+].[O-]CCN(CC[OH2+])CC[OH2+].[O-]CCN(CC[OH2+])CC[OH2+],> 200,4.79,–
CCc1c2c([nH]c(=S)c1C#N)CCC2,61.7,> 200,–
C[P+]1(c2ccccc2)CCC(N)=C(C#N)C1 (stereo unspecified),> 1070,> 1070,–
COc1cccc(/C=N/[N-]C(N)=O)c1[O-].[OH3+].[Pd+2],> 21.9,> 21.9,–
Cc1ccc(NC(=S)/C(=C(\[O-])c2ccc([N+](=O)[O-])cc2)[n+]2ccc(C(C)C)cc2)c(C)c1,> 200,158,–
O=C1NC(=O)C2C3C=CC(C12)C1C2C(=O)NC(=O)C2C31 (stereo unspecified),> 95.5,> 95.5,–
CC(C)(C)c1cc(CCC(=O)Nc2ccc(Cl)cc2Cl)nc(N)n1,> 135,> 135,–
COC(=O)C(=O)C(C(C)=O)C(=O)NCc1ccc(OC)c(OC)c1 (stereo unspecified),61.7,741,–
CC1C2CC3(c4ccccc4)CC(/C2=N\O)/C(=N/O)C1[C@@]3(C)O (stereo partly specified),> 200,> 200,–
COc1ccc2c(c1)C(=O)CC(c1ccccc1OC)O2 (stereo unspecified),> 200,34.7,–
CC(C)N(C(=O)C12C3C4C1(I)C1C2C3(I)C41C(=O)N(C(C)C)C(C)C)C(C)C (stereo unspecified),> 8.51,> 8.51,–
O=C(Nc1c(Cl)cc([N+](=O)[O-])cc1Cl)/C(=N\Nc1cccc(Cl)c1)c1c(O)c2ccccc2oc1=O,> 24.5,> 24.5,–
